Source: patent US9751846B2, “Method for producing 1,4-benzoxazine compound” (MITSUBISHI TANABE PHARMA CORPORATION, priority 2012, dated 2017)
“Also recorded” adds a separate entry of the source.

Assays:
mutagenicity (AMES test) = type: cell-based
[1] = stability of the crystal form (transition by heating, thermostability); type: physicochemical; conditions: for stability of the crystal: general statement
[2] = stability of the crystal in a formulation; type: physicochemical
[3] = hygroscopicity of the crystal form; type: physicochemical

Compound	stability of the crystal [1]	hygroscopicity [3]	also measured
CC1(C)Oc2cc(N(S(C)(=O)=O)S(C)(=O)=O)ccc2N(c2ccc(F)cc2)C1=O [compound [c], N-[4-(4-fluorophenyl)-2,2-dimethyl-3-oxo-3,4-dihydro-2H-1,4-benzoxazin-7-yl]-N-(methylsulfonyl)methanesulfonamide]			mutagenicity (mutagenicity (AMES test); test not named at this place, synthetic intermediate of the new route): lower mutagenicity
CC1(C)Oc2cc(NS(C)(=O)=O)ccc2N(c2ccc(F)cc2)C1=O [Form C crystal, N-[4-(4-fluorophenyl)-2,2-dimethyl-3-oxo-3,4-dihydro-2H-1,4-benzoxazin-7-yl]methanesulfonamide]	highly stable		
CC1(C)Oc2cc(N)ccc2N(c2ccc(F)cc2)C1=O [intermediate (2), 7-amino-4-(4-fluorophenyl)-2,2-dimethyl-2H-1,4-benzoxazin-3(4H)-one]			mutagenicity by the AMES test (mutagenicity (AMES test); synthetic intermediate of the Patent Literature 1 route): strong mutagenicity
CC1(C)Oc2cc(NS(C)(=O)=O)ccc2N(c2ccc(F)cc2)C1=O [Form A crystal, N-[4-(4-fluorophenyl)-2,2-dimethyl-3-oxo-3,4-dihydro-2H-1,4-benzoxazin-7-yl]methanesulfonamide]	highly stable	low hygroscopicity; also recorded: non-hygroscopic	transition to amorphous state or other crystal form by heating ([1]; heating): hardly makes a transition to other crystal form by heating; also recorded: does not transform to an amorphous state or other crystal form; stability in a formulation [2]: high stability in a formulation; also recorded: highly stable in a formulation
CC1(C)Oc2cc(NS(C)(=O)=O)ccc2N(c2ccc(F)cc2)C1=O [Form B crystal, N-[4-(4-fluorophenyl)-2,2-dimethyl-3-oxo-3,4-dihydro-2H-1,4-benzoxazin-7-yl]methanesulfonamide]	highly stable	low hygroscopicity	thermostability ([1]; as compared to the Form D crystal of Patent Literature 1): higher thermostability
